# Results as given in patent US10350311B2, “Iohexol powder and method of using the same” (Otsuka Pharmaceutical Co., Ltd., priority 2014, dated 2019).
# Tests used:
# Format in all cases: physicochemical
# [1] = Particle size distribution (D10, D50, D90); conditions: for Particle Size distribution (μm) D50: Table 6, Example 5; for Particle Size distribution (μm) D10 / Particle Size distribution (μm) D90: Table 6
# Source text: As used herein, the “D90” of a particulate material denotes a diameter value for the particles in the material at which about 90% of the particles have a diameter below the diameter value. For example, in a sample with a D90 of 20 μm, 90% of the particles in the sample have a diameter of 20 μm or less. As used herein, the “D50” of a material denotes a diameter value for the particles in the material at which about 50% of the particles have a diameter below the diameter value. For example, in a sample with a D50 of 10 μm, 50% of the particles in the sample have a diameter of 10 μm or less. As used herein, the “D10” of a material denotes a diameter value for the particles in the material at which about 10% of the particles have a diameter below the diameter value. For example, in a sample with a D10 of 5 μm, 10% of the particles in the sample have a diameter of 5 μm or less.
# [2] = Dissolution time in water by Modified United States Pharmacopeia Method 641
# Procedure: As used herein, the term “Modified United States Pharmacopeia Method 641” denotes a modified form of the Standard United States Pharmacopeia Method 641, where the Modified United States Pharmacopeia Method 641 is carried out as follows: • Place 1.8 g of the particulate iohexol in a meticulously clean, glass-stoppered, 50 mL glass cylinder approximately 1:10 diameter to height in size. • Fill 40 mL of tap water adjusted to 10° C. (±2° C.) into the glass cylinder. • Immediately start shaking the glass cylinder and start recording total time. • Shake the glass cylinder with an up and down movement, keeping the frequency at 12-13 movements per 5 seconds. • After 20 seconds observe for 3 seconds for completeness of dissolution. • Evaluate after 3 seconds, when the bubbles disappear, comparing with pure solvent. • If dissolved completely, record “dissolved in 20 seconds”. • If not dissolved completely, continue shaking for a total time 30 sec • Repeat the dissolution evaluation at 30 seconds, 40 seconds, 1 min., and 1 min. 30 seconds. • Always repeat the dissolution evaluation using the same procedure. • If dissolved completely at time point 1 min 30 sec, record “dissolved in NMT 1 min 30 sec”. • If not dissolved, record “not dissolved in 1 min 30 sec”. 20 oz (600 ml) modified beverage PET bottle for Iohexol Powder for Oral Solution product; 50 ml testing glass cylinder; Tap water. Samples were tested using the Modified USP Method <641> as described herein.
# [3] = Specific surface area by low-temperature nitrogen adsorption (BET); conditions: for Specific surface area m^2/g: Table 6, Example 5; for Specific Area measured [m^2/g] / Specific Area estimated [m^2/g] / Relative desorbed amount Ad/Ad(crystallized): Table 5; for Specific Area measured [m^2/g]: BET isotherm, nitrogen adsorption; for Specific Area estimated [m^2/g]: calculated from SEM geometry assuming non-porous spheres; for Relative desorbed amount Ad/Ad(crystallized): nitrogen desorbed relative to crystallized iohexol
# Procedure: Specific surface area was measured using a low-temperature nitrogen adsorption apparatus, a Pulse Chemisorb 2700.
# The specific surface area data, which were evaluated using a BET isotherm, support the nonporous nature/character of the particles. The measured value of the specific surface area was about 2.8 m^2/g, which is consistent with the calculation of the specific surface area of hypothetical material which consists of non-porous spheres with a radius of 3 μm. Considering the skeletal density of crystallized iohexol (2.097 g/cm3), the calculated specific surface area of this hypothetical material is about 4 m^2/g. All data provided by analyses appear to support the conclusion that the crystallized iohexol solid material contains agglomerates consisting of small nonporous particles and that the total specific area is the sum of the outer surface areas of these particles.
# Experimentally obtained values of the specific surface area are very low, which is typical of macroporous to non-porous materials. Experimental specific surface area values for all samples are in good agreement with the estimated values based on SEM image analysis, (calculating the particle surface area based on the geometrical shape of particles, i.e., and assuming that the particles are not porous (confirmed by mercury porosimetry as discussed above). Individual values and comparisons of the amount of nitrogen desorption for each sample are summarized in Table 5.
# [4] = Interparticle spacing calculated from bulk and skeletal density
# Procedure: As used herein, the term “interparticle spacing” denotes the percentage of the “bulk” particle volume which is free space. The interparticle spacing can be calculated from the bulk density and skeletal density. As discussed above, bulk density refers to the density determined by dividing the weight of the sample by its measured volume, for example using the USP <616> method. The skeletal density, sometimes referred to as the “true density,” is determined by dividing the weight of a sample by its “true” volume—i.e., the volume excluding interstitial voids and any open porosity in the sample (e.g., determined by gas displacement techniques).
# Bulk density = conditions: Table 6
# Source text: As used herein, the term “bulk density” of a material denotes total mass of the material divided by the total volume occupied by the material. As used herein, the term “interparticle spacing” denotes the percentage of the “bulk” particle volume which is free space. The interparticle spacing can be calculated from the bulk density and skeletal density. As discussed above, bulk density refers to the density determined by dividing the weight of the sample by its measured volume, for example using the USP <616> method. The skeletal density, sometimes referred to as the “true density,” is determined by dividing the weight of a sample by its “true” volume—i.e., the volume excluding interstitial voids and any open porosity in the sample (e.g., determined by gas displacement techniques). Interparticle spacing can be calculated from the bulk density and skeletal density as exemplified herein: if the bulk density of a particular iohexol sample is ˜0.9 g/cm^3, the corresponding “bulk” volume for 1 g of the sample is 1.11 cm^3; and if the skeletal density of the sample is ˜2 g/cm^3, the corresponding “skeletal” volume (i.e. volume with porosity excluded) for 1 g of this sample is 0.5 cm^3. The difference between the “bulk” volume and “skeletal” volume, 0.61 cm^3, represents the volume of the free space (porosity) in the particle. The interparticle spacing is the difference between the “skeletal” volume and bulk volume, divided by the “bulk” volume, expressed as a percentage (i.e. 0.61 cm^3/1.11 cm^3=55% in this example).
# [5] = Skeletal density by helium pycnometer; conditions: for Skeletal density (g/cm3): Table 6; for Skeletal density: Table 5, Example 3
# Procedure: As used herein, the term “interparticle spacing” denotes the percentage of the “bulk” particle volume which is free space. The interparticle spacing can be calculated from the bulk density and skeletal density. As discussed above, bulk density refers to the density determined by dividing the weight of the sample by its measured volume, for example using the USP <616> method. The skeletal density, sometimes referred to as the “true density,” is determined by dividing the weight of a sample by its “true” volume—i.e., the volume excluding interstitial voids and any open porosity in the sample (e.g., determined by gas displacement techniques). […] The porosity of the iohexol particles was also investigated using mercury intrusion, and the skeletal density was determined by helium pycnometer and physical adsorption of nitrogen.
# [6] = Exposure to air humidity / moisture uptake; conditions: exposed to ambient air humidity for 120 hours, SEM
# Procedure: Crystallized iohexol samples were also examined by SME analysis for the influence of air humidity (i.e., humidity of ambient/room air). Crystallized iohexol samples were exposed to air humidity for 120 hours.
structure (smiles),measurement,setting,value
"CC(=O)N(CC(O)CO)c1c(I)c(C(=O)NCC(O)CO)c(I)c(C(=O)NCC(O)CO)c1I (centres unmarked) [Batch 01206013, iohexol]",Particle Size distribution (μm) D50,[1]; listed as 01206013,10 μm
same,Particle Size distribution (μm) D10,[1]; listed as 01206013,5 μm
same,Particle Size distribution (μm) D90,[1]; listed as 01206013,15 μm
same,Dissolution time,"[2]; Table 4, 1.8 g in 40 mL tap water at 10° C., manual shaking, listed as 01206013",40 s
same,Dissolution time,"[2]; Table 6, Example 5, listed as 01206013",40 s
same,Specific surface area m^2/g,[3]; listed as 01206013,4.00 m^2/g
same,Interparticle space (% of bulk volume),"[4]; Table 6, listed as 01206013",73 % of bulk volume
same,Bulk density (g/cm3),Bulk density; listed as 01206013,0.56 g/cm3
"CC(=O)N(CC(O)CO)c1c(I)c(C(=O)NCC(O)CO)c(I)c(C(=O)NCC(O)CO)c1I (centres unmarked) [Batch 03202012/1, iohexol]",Particle Size distribution (μm) D50,[1]; listed as 03202012/1,14 μm
same,Particle Size distribution (μm) D10,[1]; listed as 03202012/1,9 μm
same,Particle Size distribution (μm) D90,[1]; listed as 03202012/1,22 μm
same,Dissolution time,"[2]; Table 4, 1.8 g in 40 mL tap water at 10° C., manual shaking, listed as 03202012/1",60 s
same,Dissolution time,"[2]; Table 6, Example 5, listed as 03202012/1",60 s
same,Specific surface area m^2/g,[3]; listed as 03202012/1,0.50 m^2/g
same,Interparticle space (% of bulk volume),"[4]; Table 6, listed as 03202012/1",56 % of bulk volume
same,Bulk density (g/cm3),Bulk density; listed as 03202012/1,0.90 g/cm3
same,Skeletal density (g/cm3),[5],2.0 g/cm3
"CC(=O)N(CC(O)CO)c1c(I)c(C(=O)NCC(O)CO)c(I)c(C(=O)NCC(O)CO)c1I (centres unmarked) [Batch 03202012/8, iohexol]",Particle Size distribution (μm) D50,[1]; listed as 03202012/8,12 μm
same,Particle Size distribution (μm) D10,[1]; listed as 03202012/8,7 μm
same,Particle Size distribution (μm) D90,[1]; listed as 03202012/8,19 μm
same,Dissolution time,"[2]; Table 4, 1.8 g in 40 mL tap water at 10° C., manual shaking, listed as 03202012/8",40 s
same,Dissolution time,"[2]; Table 6, Example 5, listed as 03202012/8",40 s
same,Specific surface area m^2/g,[3]; listed as 03202012/8,0.50 m^2/g
same,Interparticle space (% of bulk volume),"[4]; Table 6, listed as 03202012/8",56 % of bulk volume
same,Bulk density (g/cm3),Bulk density; listed as 03202012/8,0.90 g/cm3
same,Skeletal density (g/cm3),[5],2.0 g/cm3
"CC(=O)N(CC(O)CO)c1c(I)c(C(=O)NCC(O)CO)c(I)c(C(=O)NCC(O)CO)c1I (centres unmarked) [Batch 03202012/9, iohexol]",Particle Size distribution (μm) D50,[1]; listed as 03202012/9,20 μm
same,Particle Size distribution (μm) D10,[1]; listed as 03202012/9,11 μm
same,Particle Size distribution (μm) D90,[1]; listed as 03202012/9,35 μm
same,Dissolution time,"[2]; Table 4, 1.8 g in 40 mL tap water at 10° C., manual shaking, listed as 03202012/9",60 s
same,Dissolution time,"[2]; Table 6, Example 5, listed as 03202012/9",60 s
same,Specific surface area m^2/g,[3]; listed as 03202012/9,0.50 m^2/g
same,Interparticle space (% of bulk volume),"[4]; Table 6, listed as 03202012/9",56 % of bulk volume
same,Bulk density (g/cm3),Bulk density; listed as 03202012/9,0.90 g/cm3
same,Skeletal density (g/cm3),[5],2.0 g/cm3
"CC(=O)N(CC(O)CO)c1c(I)c(C(=O)NCC(O)CO)c(I)c(C(=O)NCC(O)CO)c1I (centres unmarked) [Batch 03302012, iohexol]",Particle Size distribution (μm) D50,[1]; listed as 03302012,10 μm
same,Particle Size distribution (μm) D10,[1]; listed as 03302012,5 μm
same,Particle Size distribution (μm) D90,[1]; listed as 03302012,16 μm
same,Dissolution time,"[2]; Table 4, 1.8 g in 40 mL tap water at 10° C., manual shaking, listed as 03302012",40 s
same,Dissolution time,"[2]; Table 6, Example 5, listed as 03302012",40 s
same,Specific surface area m^2/g,[3]; listed as 03302012,4.00 m^2/g
same,Interparticle space (% of bulk volume),"[4]; Table 6, listed as 03302012",73 % of bulk volume
same,Bulk density (g/cm3),Bulk density; listed as 03302012,0.56 g/cm3
"CC(=O)N(CC(O)CO)c1c(I)c(C(=O)NCC(O)CO)c(I)c(C(=O)NCC(O)CO)c1I (centres unmarked) [CRI, iohexol]",Particle Size distribution (μm) D50,[1]; listed as crystallized iohexol,10 μm
same,"Dissolution, in words",[2]; Example 2,dissolved rapidly
same,Specific Area measured [m^2/g],[3],2.8 m^2/g
same,Specific Area measured [m^2/g],[3]; listed as crystallized iohexol,about 2.8 m^2/g
same,Specific Area estimated [m^2/g],[3],4.0^a m^2/g
same,Specific Area estimated [m^2/g],[3]; listed as crystallized iohexol,about 4 m^2/g
same,Relative desorbed amount Ad/Ad(crystallized),[3],1
same,Specific surface area m^2/g,[3]; listed as crystallized iohexol,about 4 m^2/g
same,Influence of air humidity on the particles,[6],sintering of originally separated particles was observed
same,Skeletal density,[5],2.097 g/mL
same,Skeletal density,[5]; listed as crystallized iohexol,2.097 g/mL
"CC(=O)N(CC(O)CO)c1c(I)c(C(=O)NCC(O)CO)c(I)c(C(=O)NCC(O)CO)c1I (centres unmarked) [Conventional Sample #1, iohexol]",Particle Size distribution (μm) D10,[1],7 μm
same,Particle Size distribution (μm) D90,[1],61 μm
same,Particle Size distribution (μm) D50,[1],27 μm
same,Dissolution time,"[2]; Table 6, Example 5",90 s
same,Specific surface area m^2/g,[3],0.50 m^2/g
same,Interparticle space (% of bulk volume),[4]; Table 6,56 % of bulk volume
same,Bulk density (g/cm3),Bulk density,0.90 g/cm3
same,Skeletal density (g/cm3),[5],2.0 g/cm3
"CC(=O)N(CC(O)CO)c1c(I)c(C(=O)NCC(O)CO)c(I)c(C(=O)NCC(O)CO)c1I (centres unmarked) [Conventional Sample #2, iohexol]",Particle Size distribution (μm) D10,[1],7 μm
same,Particle Size distribution (μm) D90,[1],66 μm
same,Particle Size distribution (μm) D50,[1],29 μm
same,Dissolution time,"[2]; Table 6, Example 5",90 s
same,Specific surface area m^2/g,[3],0.50 m^2/g
same,Interparticle space (% of bulk volume),[4]; Table 6,56 % of bulk volume
same,Bulk density (g/cm3),Bulk density,0.90 g/cm3
same,Skeletal density (g/cm3),[5],2.0 g/cm3
"CC(=O)N(CC(O)CO)c1c(I)c(C(=O)NCC(O)CO)c(I)c(C(=O)NCC(O)CO)c1I (centres unmarked) [SDI, iohexol]",Specific Area measured [m^2/g],[3],<1 m^2/g
same,Specific Area measured [m^2/g],[3]; listed as spray dried iohexol,less than 1 m^2/g
same,Specific Area estimated [m^2/g],[3],0.5^b m^2/g
same,Relative desorbed amount Ad/Ad(crystallized),[3],0.08
same,Specific surface area m^2/g,[3]; listed as spray dried iohexol,about 0.5 m^2/g
same,Skeletal density,[5],2.029 g/mL
same,Skeletal density,[5]; listed as spray dried iohexol,2.029 g/mL
